From patent US10913744B2, “LRRK2 inhibitors and methods of making and using the same” (Dana-Farber Cancer Institute, Inc., priority 2015, dated 2021)
Where two headings read alike, the source gives them in different places.

Experiments:
[1] = biological target: ULK1 (Homo sapiens (Human), UniProt O75385); assay: Dundee profiling
[2] = biological target: LRRK2 (Mus musculus (Mouse), UniProt Q5S006); assay: Pharmacodynamic study, LRRK2 Ser910/Ser935 phosphorylation in mouse kidney, spleen and brain; type: in vivo
[3] = biological target: PFTK1 (Homo sapiens (Human), UniProt O94921); assay: KinomeScan; type: binding; conditions: 1 uM
[4] = biological target: NEK6 (Homo sapiens (Human), UniProt Q9HC98); assay: Dundee profiling
[5] = biological target: SIK3 (Homo sapiens (Human), UniProt Q9Y2K2); assay: Dundee profiling
[6] = biological target: EPHA5 (Homo sapiens (Human), UniProt P54756); assay: KinomeScan; type: binding; conditions: 1 uM
[7] = biological target: EGFR (G719C) (Homo sapiens (Human), UniProt P00533, G719C); assay: KinomeScan; type: binding; conditions: 1 uM
[8] = biological target: PAK5 (Homo sapiens (Human), UniProt Q9P286); assay: Dundee profiling
[9] = biological target: p38-alpha (Homo sapiens (Human), UniProt Q16539); assay: KinomeScan; type: binding; conditions: 1 uM
[10] = biological target: BRSK1 (Homo sapiens (Human), UniProt Q8TDC3); assay: Dundee profiling
[11] = biological target: SIK2 (Homo sapiens (Human), UniProt Q9H0K1); assay: Dundee profiling
[12] = Pharmacokinetic study in mice; type: in vivo, mouse; conditions: for C0: back extrapolated conc.; for Vd: read-out: Vss
[13] = biological target: JAK1 (JH1domain-catalytic) (Homo sapiens (Human), UniProt P23458); assay: KinomeScan; type: binding; conditions: 1 uM
[14] = biological target: p38a MAPK (Homo sapiens (Human), UniProt Q16539); assay: Dundee profiling
[15] = biological target: LZK (Homo sapiens (Human), UniProt O43283); assay: KinomeScan; type: binding; conditions: 1 uM
[16] = biological target: FGF-R1 (Homo sapiens (Human), UniProt P11362); assay: Dundee profiling
[17] = biological target: MPSK1 (Homo sapiens (Human), UniProt O75716); assay: Dundee profiling
[18] = biological target: TESK1 (Homo sapiens (Human), UniProt Q15569); assay: Dundee profiling
[19] = biological target: PIM3 (Homo sapiens (Human), UniProt Q86V86); assay: Dundee profiling
[20] = test system: CK2; assay: Dundee profiling
[21] = biological target: CIT (Homo sapiens (Human), UniProt O14578); assay: KinomeScan; type: binding; conditions: 1 uM
[22] = biological target: TTK (Homo sapiens (Human), UniProt P33981); assay: Dundee profiling
[23] = biological target: MET (Homo sapiens (Human), UniProt P08581); assay: KinomeScan; type: binding; conditions: 1 uM
[24] = biological target: PKD1 (Homo sapiens (Human), UniProt Q15139); assay: Dundee profiling
[25] = biological target: CDK11 (Homo sapiens (Human), UniProt Q9BWU1); assay: KinomeScan; type: binding; conditions: 1 uM
[26] = biological target: PKBa (Homo sapiens (Human), UniProt P31749); assay: Dundee profiling
[27] = biological target: PKA (Homo sapiens (Human), UniProt P17612); assay: Dundee profiling
[28] = biological target: EIF2AK3 (Homo sapiens (Human), UniProt Q9NZJ5); assay: Dundee profiling
[29] = biological target: Aurora A (Homo sapiens (Human), UniProt O14965); assay: Dundee profiling
[30] = biological target: JAK2 (Homo sapiens (Human), UniProt O60674); assay: Dundee profiling
[31] = read-out: percent remaining enzymatic activity
[32] = read-out: percent remaining enzymatic activity, I1, 1 μM
[33] = read-out: percent remaining enzymatic activity, I10

Sequence of LRRK2 (Q5S006 whole entry, looked up): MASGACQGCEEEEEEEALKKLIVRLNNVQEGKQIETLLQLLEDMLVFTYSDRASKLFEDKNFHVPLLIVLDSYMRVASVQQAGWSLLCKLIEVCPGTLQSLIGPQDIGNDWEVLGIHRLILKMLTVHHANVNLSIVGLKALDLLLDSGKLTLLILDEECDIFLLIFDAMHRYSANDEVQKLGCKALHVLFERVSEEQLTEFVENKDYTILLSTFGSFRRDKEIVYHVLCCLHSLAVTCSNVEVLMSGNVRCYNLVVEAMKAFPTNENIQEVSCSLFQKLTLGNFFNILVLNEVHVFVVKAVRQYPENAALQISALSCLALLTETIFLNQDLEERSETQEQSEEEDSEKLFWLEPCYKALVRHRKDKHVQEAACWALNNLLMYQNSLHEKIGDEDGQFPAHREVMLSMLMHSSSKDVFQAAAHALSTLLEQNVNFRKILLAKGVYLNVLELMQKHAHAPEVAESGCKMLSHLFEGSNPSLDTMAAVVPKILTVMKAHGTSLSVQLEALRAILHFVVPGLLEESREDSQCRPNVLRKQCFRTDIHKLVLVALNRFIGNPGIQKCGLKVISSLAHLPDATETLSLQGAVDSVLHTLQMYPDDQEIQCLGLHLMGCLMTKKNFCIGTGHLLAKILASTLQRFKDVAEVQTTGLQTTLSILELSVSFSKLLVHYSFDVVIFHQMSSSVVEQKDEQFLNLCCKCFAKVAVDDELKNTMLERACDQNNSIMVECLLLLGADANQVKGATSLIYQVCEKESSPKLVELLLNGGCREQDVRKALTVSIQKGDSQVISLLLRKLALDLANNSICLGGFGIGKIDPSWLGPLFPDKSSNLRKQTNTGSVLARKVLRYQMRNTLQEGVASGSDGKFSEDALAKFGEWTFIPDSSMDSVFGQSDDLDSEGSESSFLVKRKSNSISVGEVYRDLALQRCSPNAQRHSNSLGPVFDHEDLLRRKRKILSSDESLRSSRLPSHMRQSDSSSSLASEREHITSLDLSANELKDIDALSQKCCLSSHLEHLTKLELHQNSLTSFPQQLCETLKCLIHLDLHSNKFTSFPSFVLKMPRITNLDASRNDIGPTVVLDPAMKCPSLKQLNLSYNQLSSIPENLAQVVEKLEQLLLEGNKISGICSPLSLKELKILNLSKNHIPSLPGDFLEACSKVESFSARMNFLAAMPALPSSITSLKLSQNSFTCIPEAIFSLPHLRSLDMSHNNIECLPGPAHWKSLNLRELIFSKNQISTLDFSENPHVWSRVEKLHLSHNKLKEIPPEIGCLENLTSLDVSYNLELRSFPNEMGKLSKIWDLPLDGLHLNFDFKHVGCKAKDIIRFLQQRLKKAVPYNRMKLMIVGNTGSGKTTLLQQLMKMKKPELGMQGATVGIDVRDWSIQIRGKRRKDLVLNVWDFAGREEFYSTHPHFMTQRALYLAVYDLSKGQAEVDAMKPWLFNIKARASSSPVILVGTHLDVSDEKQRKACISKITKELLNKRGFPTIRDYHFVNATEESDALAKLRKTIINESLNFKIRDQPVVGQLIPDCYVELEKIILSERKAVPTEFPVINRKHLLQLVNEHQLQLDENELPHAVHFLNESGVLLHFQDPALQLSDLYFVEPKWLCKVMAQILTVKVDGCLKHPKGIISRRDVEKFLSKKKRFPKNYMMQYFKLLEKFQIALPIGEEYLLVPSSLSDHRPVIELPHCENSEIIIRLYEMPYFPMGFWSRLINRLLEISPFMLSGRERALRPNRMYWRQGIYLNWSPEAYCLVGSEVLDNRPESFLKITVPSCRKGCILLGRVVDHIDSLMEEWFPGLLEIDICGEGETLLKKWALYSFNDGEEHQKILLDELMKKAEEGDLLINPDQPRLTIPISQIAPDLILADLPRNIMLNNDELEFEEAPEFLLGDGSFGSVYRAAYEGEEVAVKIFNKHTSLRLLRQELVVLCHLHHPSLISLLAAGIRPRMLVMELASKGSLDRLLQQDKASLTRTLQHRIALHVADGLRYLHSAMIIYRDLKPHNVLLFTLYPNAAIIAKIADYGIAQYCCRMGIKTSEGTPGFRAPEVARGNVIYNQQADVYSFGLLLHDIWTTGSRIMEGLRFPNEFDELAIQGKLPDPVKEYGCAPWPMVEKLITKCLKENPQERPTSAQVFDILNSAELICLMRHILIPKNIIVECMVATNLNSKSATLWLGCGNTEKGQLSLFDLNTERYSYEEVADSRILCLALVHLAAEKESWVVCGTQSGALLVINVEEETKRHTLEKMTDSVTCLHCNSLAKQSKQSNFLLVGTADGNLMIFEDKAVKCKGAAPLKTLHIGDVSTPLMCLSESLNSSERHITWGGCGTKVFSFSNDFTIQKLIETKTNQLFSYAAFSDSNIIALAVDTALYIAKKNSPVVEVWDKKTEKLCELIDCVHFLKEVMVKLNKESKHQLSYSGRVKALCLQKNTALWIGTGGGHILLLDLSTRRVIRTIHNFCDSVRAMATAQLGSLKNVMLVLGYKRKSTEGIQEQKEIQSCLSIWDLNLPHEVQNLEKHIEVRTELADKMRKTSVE
Sequence of PKD1 (Q15139 whole entry): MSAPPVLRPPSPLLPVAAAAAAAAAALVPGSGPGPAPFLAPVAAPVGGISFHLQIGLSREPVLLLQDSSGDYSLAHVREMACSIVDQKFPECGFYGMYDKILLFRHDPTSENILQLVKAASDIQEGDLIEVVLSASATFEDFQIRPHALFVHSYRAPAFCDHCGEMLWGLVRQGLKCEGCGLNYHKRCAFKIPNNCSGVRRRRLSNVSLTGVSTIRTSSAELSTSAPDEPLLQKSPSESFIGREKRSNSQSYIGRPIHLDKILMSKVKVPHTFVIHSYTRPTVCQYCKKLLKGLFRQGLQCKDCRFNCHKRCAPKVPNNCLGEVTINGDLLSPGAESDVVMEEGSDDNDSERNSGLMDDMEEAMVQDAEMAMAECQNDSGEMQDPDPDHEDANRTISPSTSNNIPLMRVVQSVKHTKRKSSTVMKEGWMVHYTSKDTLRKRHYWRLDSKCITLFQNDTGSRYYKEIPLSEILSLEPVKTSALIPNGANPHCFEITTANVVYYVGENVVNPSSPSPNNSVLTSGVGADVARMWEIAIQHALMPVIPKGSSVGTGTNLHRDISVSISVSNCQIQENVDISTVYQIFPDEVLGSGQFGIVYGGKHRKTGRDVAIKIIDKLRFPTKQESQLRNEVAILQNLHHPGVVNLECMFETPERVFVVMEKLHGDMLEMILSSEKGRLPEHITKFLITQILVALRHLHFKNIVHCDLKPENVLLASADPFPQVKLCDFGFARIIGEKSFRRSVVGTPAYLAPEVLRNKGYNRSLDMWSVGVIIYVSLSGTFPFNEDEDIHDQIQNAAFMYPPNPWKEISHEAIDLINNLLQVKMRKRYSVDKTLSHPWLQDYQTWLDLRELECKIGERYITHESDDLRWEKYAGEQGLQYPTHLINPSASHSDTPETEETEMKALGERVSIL
Sequence of PAK5 (Q9P286 whole entry): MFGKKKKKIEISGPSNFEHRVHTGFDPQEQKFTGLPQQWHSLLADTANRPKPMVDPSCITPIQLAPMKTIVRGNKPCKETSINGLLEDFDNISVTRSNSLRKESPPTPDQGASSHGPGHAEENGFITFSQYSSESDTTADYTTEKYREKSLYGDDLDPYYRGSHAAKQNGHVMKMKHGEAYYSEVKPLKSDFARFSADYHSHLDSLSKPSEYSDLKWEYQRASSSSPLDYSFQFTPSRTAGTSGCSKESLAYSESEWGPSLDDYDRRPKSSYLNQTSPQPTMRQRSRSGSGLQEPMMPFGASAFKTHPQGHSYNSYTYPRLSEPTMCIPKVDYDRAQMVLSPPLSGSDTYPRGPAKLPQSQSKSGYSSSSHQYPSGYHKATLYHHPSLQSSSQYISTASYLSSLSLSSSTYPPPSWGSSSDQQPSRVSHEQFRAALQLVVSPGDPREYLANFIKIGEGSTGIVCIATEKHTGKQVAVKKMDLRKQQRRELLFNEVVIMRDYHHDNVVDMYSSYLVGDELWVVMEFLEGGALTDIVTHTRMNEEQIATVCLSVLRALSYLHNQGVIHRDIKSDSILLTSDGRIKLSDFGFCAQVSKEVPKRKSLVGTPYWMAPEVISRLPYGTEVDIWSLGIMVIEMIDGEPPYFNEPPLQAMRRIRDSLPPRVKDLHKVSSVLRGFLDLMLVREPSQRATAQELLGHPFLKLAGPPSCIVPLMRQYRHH
Sequence of Aurora A (O14965 whole entry): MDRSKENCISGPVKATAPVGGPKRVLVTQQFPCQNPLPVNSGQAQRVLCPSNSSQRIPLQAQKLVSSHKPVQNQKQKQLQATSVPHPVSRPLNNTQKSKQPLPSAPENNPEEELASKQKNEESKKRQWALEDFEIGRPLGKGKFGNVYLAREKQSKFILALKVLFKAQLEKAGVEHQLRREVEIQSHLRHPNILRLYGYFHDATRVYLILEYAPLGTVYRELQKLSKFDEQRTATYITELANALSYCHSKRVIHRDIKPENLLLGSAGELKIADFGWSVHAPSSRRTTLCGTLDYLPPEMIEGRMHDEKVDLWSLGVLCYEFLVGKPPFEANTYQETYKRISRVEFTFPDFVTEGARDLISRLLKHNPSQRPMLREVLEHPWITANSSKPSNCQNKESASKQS
Sequence of PKBa (P31749 whole entry): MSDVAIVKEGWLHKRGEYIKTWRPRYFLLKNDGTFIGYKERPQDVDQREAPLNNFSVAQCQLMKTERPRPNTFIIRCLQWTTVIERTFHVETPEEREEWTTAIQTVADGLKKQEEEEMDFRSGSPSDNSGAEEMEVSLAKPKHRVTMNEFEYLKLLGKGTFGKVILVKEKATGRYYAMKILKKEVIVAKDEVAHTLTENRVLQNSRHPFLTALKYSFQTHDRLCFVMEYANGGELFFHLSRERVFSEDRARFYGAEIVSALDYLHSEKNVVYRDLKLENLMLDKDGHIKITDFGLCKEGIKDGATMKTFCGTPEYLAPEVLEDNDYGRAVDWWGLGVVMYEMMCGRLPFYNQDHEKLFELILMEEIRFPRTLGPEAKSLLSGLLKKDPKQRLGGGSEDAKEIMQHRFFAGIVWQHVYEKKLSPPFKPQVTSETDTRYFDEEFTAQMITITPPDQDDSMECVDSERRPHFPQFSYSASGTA

With `CNc1nc(Nc2ccc(C(=O)N3CCOCC3)cc2OC)nc2[nH]cc(Cl)c12` [Compound 18, (4-((5-chloro-4-(methylamino)-7H-pyrrolo[2,3-d]pyrimidin-2-yl)amino)-3-methoxyphenyl)(morpholino)methanone] the “percent remaining enzymatic activity” value ([1]; I10) was 95%, the remaining activity at 1 µM [1, 31] was 103% and the “inhibition of LRRK2 Ser935 phosphorylation in brain” value ([2]; 10 mg/kg) was “only partial inhibition in brain”. The “inhibition of LRRK2 Ser935 phosphorylation in tissues” value ([2]; 30 mg/kg) was “near complete inhibition in all tissues”, the “dephosphorylation of Ser935 of LRRK2 in kidney, spleen and brain” value ([2]; 100 mg/kg, intraperitoneal) was “near complete dephosphorylation of Ser935 of LRRK2” and the KinomeScan value [3] was 82. For the same compound, the remaining activity at 1 µM [4, 32] was 101%, the remaining activity at 1 µM [4, 33] was 83% and the “percent remaining enzymatic activity” value ([5]; I10) was 96%. It also gave a remaining activity at 1 µM [5, 31] of 107%, a KinomeScan value [6] of 98 and a KinomeScan value [7] of 91. The remaining activity at 1 µM [8, 32] was 89%, the remaining activity at 1 µM [8, 33] was 70% and the KinomeScan value [9] was 96. For the same compound, the remaining activity at 1 µM [10, 32] was 94%, the remaining activity at 1 µM [10, 33] was 98% and the remaining activity at 1 µM [11, 32] was 109%. For the same compound, the remaining activity at 1 µM [11, 33] was 92%, the AUClast ([12]; Brain, i.v., 2 mg/kg) was 239.31 ng·h/mL and the AUClast ([12]; Plasma, i.v., 2 mg/kg) was 532.67 ng·h/mL. It also gave a T1/2 ([12]; Plasma, i.v., 2 mg/kg) of 39.6 min, an AUClast ([12]; Plasma, p.o., 10 mg/kg) of 3094.58 ng·h/mL and a Kp ([12]; mouse, brain/plasma, iv, 2 mg/kg i.v., from AUClast, read-out: brain/plasma concentration ratio) of 0.45. For the same compound, the AUC(0-inf) ([12]; mouse, iv, Brain, 2 mg/kg) was 246 ng·h/mL, the AUC(0-t) ([12]; mouse, iv, Brain, 2 mg/kg) was 239 ng·h/mL and the clearance ([12]; mouse, iv, Brain, 2 mg/kg) was 135 mL/min/kg. For the same compound, the half-life ([12]; mouse, iv, Brain, 2 mg/kg) was 13.8 min, the C0 ([12]; mouse, iv, Brain, 2 mg/kg) was 1340 ng/mL and the Vd ([12]; mouse, iv, Brain, i.v., 2 mg/kg) was 1.7 L/kg. It also gave an AUC(0-inf) ([12]; mouse, iv, Plasma, 2 mg/kg) of 536 ng·h/mL, an AUC(0-t) ([12]; mouse, iv, Plasma, 2 mg/kg) of 533 ng·h/mL and a clearance ([12]; mouse, iv, Plasma, 2 mg/kg) of 62.2 mL/min/kg. The half-life ([12]; mouse, iv, Plasma, 2 mg/kg) was 39.6 min, the C0 ([12]; mouse, iv, Plasma, 2 mg/kg) was 1600 ng/mL and the Vd ([12]; mouse, iv, Plasma, i.v., 2 mg/kg) was 1.73 L/kg. It also gave a bioavailability ([12]; mouse, oral, Plasma, 10 mg/kg p.o. vs 2 mg/kg i.v., from AUClast, read-out: % F (oral bioavailability)) of 116%, an AUC(0-inf) ([12]; mouse, po, Brain, 10 mg/kg) of 762 ng·h/mL and an AUC(0-t) ([12]; mouse, po, Brain, 10 mg/kg) of 688 ng·h/mL. It also gave a Cmax ([12]; mouse, po, Brain, 10 mg/kg) of 247 ng/mL, a Tmax ([12]; mouse, po, Brain, 10 mg/kg) of 60 min and an AUC(0-inf) ([12]; mouse, po, Plasma, 10 mg/kg) of 3870 ng·h/mL. The AUC(0-t) ([12]; mouse, po, Plasma, 10 mg/kg) was 3090 ng·h/mL, the Cmax ([12]; mouse, po, Plasma, 10 mg/kg) was 803 ng/mL and the Tmax ([12]; mouse, po, Plasma, 10 mg/kg) was 60 min. The KinomeScan value [13] was 77, the “percent remaining enzymatic activity” value ([14]; I10) was 104% and the remaining activity at 1 µM [14, 31] was 90%. It also gave a KinomeScan value [15] of 92, a remaining activity at 1 µM [16, 32] of 94% and a remaining activity at 1 µM [16, 33] of 102%. The remaining activity at 1 µM [17, 32] was 113%, the remaining activity at 1 µM [17, 33] was 106% and the remaining activity at 1 µM [18, 32] was 97%. For the same compound, the remaining activity at 1 µM [18, 33] was 95%, the remaining activity at 1 µM [19, 32] was 96% and the remaining activity at 1 µM [19, 33] was 75%. The “percent remaining enzymatic activity” value ([20]; I1, 1 μM) was 94%, the “percent remaining enzymatic activity” value ([20]; I10) was 70% and the KinomeScan value [21] was 92. It also gave a remaining activity at 1 µM [22, 32] of 69%, a remaining activity at 1 µM [22, 33] of 12% and a KinomeScan value [23] of 97. For the same compound, the remaining activity at 1 µM [24, 32] was 47%, the remaining activity at 1 µM [24, 33] was 7% and the KinomeScan value [25] was 63. The remaining activity at 1 µM [26, 32] was 101%, the remaining activity at 1 µM [26, 33] was 105% and the remaining activity at 1 µM [27, 32] was 99%. The remaining activity at 1 µM [27, 33] was 101%, the remaining activity at 1 µM [28, 32] was 102% and the remaining activity at 1 µM [28, 33] was 79%. For the same compound, the remaining activity at 1 µM [29, 32] was 124%, the remaining activity at 1 µM [29, 33] was 112% and the “percent remaining enzymatic activity” value ([30]; I10) was 97%. It also gave a remaining activity at 1 µM [30, 31] of 99%.
